These results are taken from EP0059645A1, “Method and kit for identification of beta-lactamases” (NATIONAL RESEARCH DEVELOPMENT CORPORATION, priority 1981, dated 1982).

Holding throughout (experiment): Competitive assay with nitrocefin (RSAI)
In one experiment the target is TEM-2 (Escherichia coli, UniProt P62593, Q37K). The experiment is classed as biochemical, E. coli 1725E. The source says: (§1) It is convenient to express the results in terms of a Relative Substrate Affinity Index (RSAI) value.
(§2) RSAI = Concentration of competing substrate which gives 50% inhibition of ring-opening hydrolysis of the chromogenic substrate
(§3) Concentration of chromogenic substrate in the assay A high RSAI value therefore indicates a low affinity of the beta-lactamase for that competing substrate, and therefore predicts resistance of a beta-lactam competing substrate to hydrolysis by the beta-lactamase. Low RSAI values, in contrast, predict sensitivity to hydrolysis by a beta-lactamase.
(§4) Beta-lactam antibiotics which bind to the TEM-2 enzyme compete with nitrocefin in the assay. […] . This concentration of ampicillin is a direct estimate of the relative affinity of the TEM-2 enzyme for ampicillin. […] . The RSAI value was therefore 1.3.

Another experiment deals with HMS-1. Format: biochemical, E. coli 1946.
The target of experiment [1] is T1, Chromosomal, constitutive beta-lactamase enzyme (Enterobacter cloacae, UniProt P05364).
T1 construct: Normally, therefore, the beta-lactamase has to be extracted from the cells for the purpose of the present invention; endogenous in cells
Format: biochemical, E. cloacae.

For another experiment, the system named is PSE-3. The experiment is classed as biochemical, Ps.aerug. 1920E.
For experiment [2], the target named is T2, Chromosomal, induced beta-lactamase enzyme (Pseudomonas aeruginosa, UniProt P24735).
T2 construct: Normally, therefore, the beta-lactamase has to be extracted from the cells for the purpose of the present invention; endogenous in cells; host or cells: Pseudomonas aeruginosa 1937E grown with ampicillin
Format: biochemical, Ps.aerug. 1937E + ampicillin.

A further experiment concerns K10317. The experiment is classed as biochemical, K.aerog. 10317.
Source text: as §1, §2, §3, §4

A further experiment has as its system K1073. Format: biochemical, Klebsiella 1073.
Source text: as §1, §2, §3, §4

A further experiment deals with K17. Format: biochemical, Klebsiella 17.
Source text: as §1, §2, §3, §4

The target of another experiment is OXA-3 (Pseudomonas aeruginosa, UniProt Q51429). Format: biochemical, E. coli R57B. Also on record: Normally, therefore, the beta-lactamase has to be extracted from the cells for the purpose of the present invention; endogenous in cells.
Another experiment concerns the target PSE-1 (Pseudomonas aeruginosa, UniProt Q03170). The experiment is classed as biochemical, Ps.aerug. 1937E. Set-up: Normally, therefore, the beta-lactamase has to be extracted from the cells for the purpose of the present invention; endogenous in cells.
The next experiment deals with PSE-2 (Pseudomonas aeruginosa, UniProt P14489). Format: biochemical, Ps.aerug. 1973E. Set-up: Normally, therefore, the beta-lactamase has to be extracted from the cells for the purpose of the present invention; endogenous in cells.
Another experiment deals with PSE-4 (Pseudomonas aeruginosa, UniProt P16897). The experiment is classed as biochemical, Ps.aerug. 1559E. Also on record: Normally, therefore, the beta-lactamase has to be extracted from the cells for the purpose of the present invention; endogenous in cells.
The target of another experiment is SHV-1 (Escherichia coli, UniProt P0AD63). Format: biochemical, E. coli 2008E. Set-up: the beta-lactamase has to be extracted from the cells for the purpose of the present invention; made in house; host or cells: E. coli 2008E (crude cell extract).
For the next experiment, the target named is TEM-1 (Escherichia coli, UniProt P62593). Format: biochemical, E. coli 2136E. Set-up: the beta-lactamase has to be extracted from the cells for the purpose of the present invention; made in house; host or cells: E. coli 2136E (plasmid-bearing strain; crude cell extract).
In a further experiment the target is OXA-1 (Escherichia coli, UniProt P13661). The experiment is classed as biochemical, E. coli 1527E. Also on record: the beta-lactamase has to be extracted from the cells for the purpose of the present invention; made in house; host or cells: E. coli 1527E according to the earlier reading (crude cell extract).
Experiment [3] addresses Chromosomal, hyper-induced beta-lactamase enzyme (Escherichia coli, UniProt P00811). Format: biochemical, E. coli SNU35. Set-up: Normally, therefore, the beta-lactamase has to be extracted from the cells for the purpose of the present invention; endogenous in cells; host or cells: E. coli SNU 35 (artificially produced strain).
For a further experiment, the target named is OXA-2 (Escherichia coli, UniProt P0A1V9). The experiment is classed as biochemical, E. coli R46. Set-up: the beta-lactamase has to be extracted from the cells for the purpose of the present invention; made in house; host or cells: E. coli carrying R46 according to the earlier reading (crude cell extract).

Marks after values point to notes of the source that are not given here.

On to `CC1(C)S[C@@H]2[C@H](NC(=O)[C@H](C(=O)O)c3ccsc3)C(=O)N2[C@H]1C(=O)O` [Ticar-cillin, ticarcillin], for which the RSAI on TEM-2 is reported as 0.49; in the experiment with HMS-1 it was 0.175; in experiment [1] it was 0.0008*; in the experiment on PSE-3, 2; in [2], 0.0065; with K10317 it was 0.48. Further, the RSAI with K1073 is recorded as 0.485; with K17, 0.25; at OXA-3, 12; on PSE-1 it was 0.63; at PSE-2 it was 2.4; at PSE-4, 0.65. For the same compound, the RSAI turned out to be 0.23 on SHV-1; 0.035 on TEM-1; 0.65 on OXA-1; 0.001 in experiment [3]; 26 at OXA-2.
Take `O=C(O)[C@H]1/C(=C/CO)O[C@@H]2CC(=O)N21` [Clavulanic acid]: the RSAI at TEM-2 is on record as 0.002*; with HMS-1, 0.006*; in [1] it was 50; in the experiment on PSE-3 it was 0.014; in [2], above 40; in the experiment on K10317, 0.004*. Also, the RSAI in the experiment with K1073 was 0.004*; with K17 it was 0.004*; at OXA-3 it was 1.6*; at PSE-1 it was 0.0001; on PSE-2, 0.4; at PSE-4, 0.004*. The RSAI at SHV-1 was 0.006*; at TEM-1, 0.003*; on OXA-1, 0.02*; in [3], 4; at OXA-2 it was 0.9*. The “nature of the binding to the enzyme” value is given as “reversibly” on PSE-1 and “irreversibly” at PSE-4.
As to `CC1(C)S[C@@H]2[C@H](NC(=O)C(C(=O)O)c3ccccc3)C(=O)N2[C@H]1C(=O)O` (some centres unmarked) [Carbeni-cillin, carbenicillin], the RSAI was 0.4 at TEM-2; 0.09 with HMS-1; 0.0003* in experiment [1]; 1.35 with PSE-3; 0.008 in [2]; 0.7 with K10317. For the same compound, the RSAI with K1073 was 0.5; with K17 it was 0.4; at OXA-3, 12; at PSE-1 it was 1.4; at PSE-2, 5.5; at PSE-4, 3. Besides, the RSAI on SHV-1 was 0.5; on TEM-1, 0.6; at OXA-1, 0.5; in [3] it was 0.00005*; at OXA-2, 15.
For the compound `CC1=C(C(=O)O)N2C(=O)[C@@H](NC(=O)[C@H](N)C3=CCC=CC3)[C@H]2SC1` [Cephra-dine, cephradine], the RSAI on TEM-2 was 50; with HMS-1 it was 25; in experiment [1], 1.8; in the experiment on PSE-3, 3.6; in experiment [2] it was 1; in the experiment on K10317, 18. For the same compound, the RSAI is 25 with K1073; 10.4 with K17; 100 on OXA-3; 46 on PSE-1; 4.2 on PSE-2; 80 at PSE-4. Besides, the RSAI on SHV-1 is 15; on TEM-1, 35; on OXA-1, 420; in [3], 0.12; on OXA-2, 86.
Turning to `Cc1nnc(SCC2=C(C(=O)O)N3C(=O)[C@@H](NC(=O)Cn4cnnn4)[C@H]3SC2)s1` [Cephalo-zolin, Cephalozolin], the RSAI at TEM-2 was determined as 48; in the experiment on HMS-1, 0.8; in experiment [1] it was 17; in the experiment with PSE-3, 3.2; in [2] it was 15; with K10317 it was 30. Also, the RSAI in the experiment with K1073 stood at 16; with K17 it was 1; at OXA-3 it was 3.4; at PSE-1, 2; on PSE-2 it was 1.4; on PSE-4, 2.6. The RSAI was 15 on SHV-1; 30 at TEM-1; 10 on OXA-1; 46 in experiment [3]; 3.4 on OXA-2.
For the compound `CC(C)(O/N=C(\C(=O)N[C@@H]1C(=O)N2C(C(=O)[O-])=C(C[n+]3ccccc3)CS[C@H]12)c1csc(N)n1)C(=O)O` [Ceftazidime (GR 20,263), Ceftazidime], the RSAI is reported as 1500 on TEM-2; 10 with HMS-1; 0.1* in [1]; 144 in the experiment with PSE-3; 0.46* in [2]; 1420 with K1073. For the same compound, the RSAI with K17 is 880; at OXA-3 it was above 400; at PSE-1, 600; on PSE-2, above 400; at PSE-4 it was 420; at SHV-1, 1140. The RSAI was above 400 on TEM-1, above 2000 on OXA-1, 0.2* in [3] and 900 on OXA-2.
In the case of `O=C(Cc1cccs1)N[C@@H]1C(=O)N2C(C(=O)[O-])=C(C[n+]3ccccc3)CS[C@H]12` [Cephalo-ridine, cephaloridine], the RSAI was found to be 20 on TEM-2; 6 in the experiment on HMS-1; 16 in experiment [1]; 2.2 in the experiment on PSE-3; 30 with K10317; 19.2 with K1073. Further, the RSAI stood at 5.4 in the experiment on K17; 4.4 at OXA-3; 6 at PSE-1; 22 at PSE-2; 3.5 at PSE-4; 30 on SHV-1. Moreover, the RSAI at TEM-1 is 40; on OXA-1, 60; in experiment [3], 2*; on OXA-2, 4.
